Values after ≈ are worked out from the molar mass of the structure shown.
What was measured:
S. aureus VRSA = experiment: MIC, broth microdilution, vancomycin-resistant S. aureus (VRSA); format: cell-based, Staphylococcus aureus; conditions: for MIC: Staphylococcus aureus VRSA, read-out: MIC; for MIC-fold improvement vs. vancomycin: VRSA, ratio of MIC of vancomycin and MIC of analogue
Experimental: (§1) The minimum inhibitory concentration (MIC) was determined using the broth microdilution method according to the antimicrobial susceptibility testing standards of the clinical and laboratory standards institute ([Clinical and Laboratory Standards Institute [CLSI], 2012]). Ultrapure water and non-inoculated broth were used as controls. In one case, a final concentration of 10 μM vancomycin was included with the vancomycin analog or control antibiotic.

E. faecalis VRE 29 = experiment: MIC, broth microdilution, vancomycin-resistant E. faecalis VRE 29 (VanA); format: cell-based, Enterococcus faecalis; conditions: for MIC: Enterococcus faecalis VRE 29 (vancomycin-resistant), read-out: MIC; for MIC-fold improvement vs. vancomycin: VRE 29, ratio of MIC of vancomycin and MIC of analogue
Experimental: as §1

S. aureus VISA/HIP5827 = experiment: MIC, broth microdilution, vancomycin-intermediate S. aureus VISA HIP5827; format: cell-based, Staphylococcus aureus; conditions: for MIC: Staphylococcus aureus VISA/HIP5827, read-out: MIC; for MIC-fold improvement vs. vancomycin: VISA/HIP5827, ratio of MIC of vancomycin and MIC of analogue
Experimental: as §1

E. faecalis VRE 53 = experiment: MIC, broth microdilution, vancomycin-resistant E. faecalis VRE 53 (VanA); format: cell-based, Enterococcus faecalis; conditions: for MIC: Enterococcus faecalis VRE 53 (vancomycin-resistant), read-out: MIC; for MIC-fold improvement vs. vancomycin: VRE 53, ratio of MIC of vancomycin and MIC of analogue
Experimental: as §1

E. faecalis VSE 1 = experiment: MIC, broth microdilution, vancomycin-sensitive E. faecalis (VSE 1); format: cell-based, Enterococcus faecalis; conditions: for MIC: Enterococcus faecalis VSE 1 (vancomycin-sensitive), read-out: MIC; for MIC-fold improvement vs. vancomycin: VSE 1, ratio of MIC of vancomycin and MIC of analogue
Experimental: as §1

E. faecalis VRE 37 = experiment: MIC, broth microdilution, vancomycin-resistant E. faecalis VRE 37 (VanA); format: cell-based, Enterococcus faecalis; conditions: for MIC: Enterococcus faecalis VRE 37 (vancomycin-resistant), read-out: MIC
Experimental: as §1

[1] = tested on: human cervix carcinoma (HeLa) cells; experiment: Cytostatic activity, HeLa cell proliferation; format: cell-based; conditions: mean ± SD of three experiments; highest concentration tested 250 µM; 4 days; read-out: Toxicity (IC50) HeLa
Experimental: (§2) Murine leukemia (L1210), human T-lymphocyte (CEM) and the human cervix carcinoma (HeLa) cell line were suspended at 300,000–500,000 cells/mL of culture medium, and 100 μL of a cell suspension was added to 100 μL of an appropriate dilution of the test compounds in wells of 96-well microtiter plates. After incubation at 37°C for 2 (L1210), 3 (CEM), or 4 (HeLa) days, the cell number was determined using a Coulter counter. The IC50 was defined per cell type as the compound concentration required to inhibit cell proliferation by 50% compared to the negative control ([Glowacka et al., 2017]).

[2] = tested on: Murine leukemia (L1210) cells; experiment: Cytostatic activity, L1210 cell proliferation; format: cell-based; conditions: mean ± SD of three experiments; highest concentration tested 250 µM; 2 days; read-out: Toxicity (IC50) L1210
Experimental: as §2

[3] = tested on: L1210, CEM and HeLa cell lines; experiment: Cytostatic activity, average or summary over L1210, CEM and HeLa; format: cell-based; conditions: average of L1210, CEM and HeLa; read-out: Toxicity (IC50) Average
Experimental: as §2

E. faecalis VRE 6 = experiment: MIC, broth microdilution, vancomycin-resistant E. faecalis VRE 6 (VanA); format: cell-based, Enterococcus faecalis; conditions: for MIC: Enterococcus faecalis VRE 6 (vancomycin-resistant), read-out: MIC; for MIC-fold improvement vs. vancomycin: VRE 6, ratio of MIC of vancomycin and MIC of analogue
Experimental: as §1

[4] = tested on: human T-lymphocyte (CEM) cells; experiment: Cytostatic activity, CEM cell proliferation; format: cell-based; conditions: mean ± SD of three experiments; highest concentration tested 250 µM; 3 days; read-out: Toxicity (IC50) CEM
Experimental: as §2

[5] = tested on: S. aureus VSSA (ATCC 6538); experiment: MIC, broth microdilution, vancomycin-sensitive S. aureus (VSSA/MSSA, ATCC 6538); format: cell-based, Staphylococcus aureus; conditions: for MIC: Staphylococcus aureus VSSA, read-out: MIC; for MIC-fold improvement vs. vancomycin: VSSA, ratio of MIC of vancomycin and MIC of analogue
Experimental: as §1

MRSA KS6 = experiment: MIC, broth microdilution, MRSA KS6; format: cell-based, Staphylococcus aureus; conditions: for MIC-fold improvement vs. vancomycin: MRSA KS6, ratio of MIC of vancomycin and MIC of analogue; for MIC: Staphylococcus aureus MRSA KS6, read-out: MIC
Experimental: as §1

MRSA KS1 = experiment: MIC, broth microdilution, MRSA KS1; format: cell-based, Staphylococcus aureus; conditions: for MIC-fold improvement vs. vancomycin: MRSA KS1, ratio of MIC of vancomycin and MIC of analogue; for MIC: Staphylococcus aureus MRSA KS1, read-out: MIC
Experimental: as §1

MRSA KS89 = experiment: MIC, broth microdilution, MRSA KS89; format: cell-based, Staphylococcus aureus; conditions: for MIC-fold improvement vs. vancomycin: MRSA KS8, ratio of MIC of vancomycin and MIC of analogue; for MIC: Staphylococcus aureus MRSA KS8, read-out: MIC
Experimental: as §1

MRSA KS2 = experiment: MIC, broth microdilution, MRSA KS2; format: cell-based, Staphylococcus aureus; conditions: for MIC-fold improvement vs. vancomycin: MRSA KS2, ratio of MIC of vancomycin and MIC of analogue; for MIC: Staphylococcus aureus MRSA KS2, read-out: MIC
Experimental: as §1

Row | MIC (S. aureus VRSA) [µM] | MIC-fold improvement vs. vancomycin (S. aureus VRSA) | MIC (E. faecalis VRE 29) [µM] | MIC-fold improvement vs. vancomycin (E. faecalis VRE 29) | MIC (S. aureus VISA/HIP5827) [µM] | MIC-fold improvement vs. vancomycin (S. aureus VISA/HIP5827) | MIC (E. faecalis VRE 53) [µM] | MIC-fold improvement vs. vancomycin (E. faecalis VRE 53) | MIC (E. faecalis VSE 1) [µM] | MIC-fold improvement vs. vancomycin (E. faecalis VSE 1) | MIC (E. faecalis VRE 37) [µM] | MIC (E. faecalis VRE 6) [µM] | MIC-fold improvement vs. vancomycin (E. faecalis VRE 6) | MIC [5] [µM] | MIC-fold improvement vs. vancomycin [5] | MIC-fold improvement vs. vancomycin (MRSA KS6) | SMILES | IC50 [1] [µM] | IC50 [2] [µM] | IC50 [3] [µM] | IC50 [4] [µM] | further results
1 | 12.5 (≈ 20.5 µg/mL) | 8 | 12.5 (≈ 20.5 µg/mL) | 32 | 0.78 (≈ 1.28 µg/mL) | 8 | 12.5 (≈ 20.5 µg/mL) | 32 | 0.78 (≈ 1.28 µg/mL) | 2 | 12.5 (≈ 20.5 µg/mL) | 12.5 (≈ 20.5 µg/mL) | 16 | 0.78 (≈ 1.28 µg/mL) | 1 | 1 | CN[C@H](CC(C)C)C(=O)N[C@H]1C(=O)N[C@@H](CC(N)=O)C(=O)N[C@H]2C(=O)N[C@H]3C(=O)N[C@H](C(=O)N[C@H](C(=O)NCC(=O)Nc4ccc(OC)c(OC)c4)c4cc(O)cc(O)c4-c4cc3ccc4O)[C@H](O)c3ccc(c(Cl)c3)Oc3cc2cc(c3O[C@@H]2O[C@H](CO)[C@@H](O)[C@H](O)[C@H]2O[C@H]2C[C@](C)(N)[C@H](O)[C@H](C)O2)Oc2ccc(cc2Cl)[C@H]1O [Vanc-7] | > 250 | > 250 | > 250 | > 250 | MIC-fold improvement vs. vancomycin (E. faecalis VRE 37; VRE 37, ratio of MIC of vancomycin and MIC of analogue): 64; MIC (MRSA KS6): 0.78 µM (≈ 1.28 µg/mL); MIC-fold improvement vs. vancomycin (MRSA KS1): 1; MIC (MRSA KS1): 0.78 µM (≈ 1.28 µg/mL); MIC-fold improvement vs. vancomycin (MRSA KS89): 1; MIC (MRSA KS89): 0.78 µM (≈ 1.28 µg/mL); MIC-fold improvement vs. vancomycin (MRSA KS2): 2; MIC (MRSA KS2): 0.39 µM (≈ 0.64 µg/mL)
2 | 25 (≈ 41.7 µg/mL) | 4 | 25 (≈ 41.7 µg/mL) | 16 | 1.56 (≈ 2.6 µg/mL) | 4 | 12.5 (≈ 20.8 µg/mL) | 32 | 0.78 (≈ 1.3 µg/mL) | 2 | 25 (≈ 41.7 µg/mL) | 12.5 (≈ 20.8 µg/mL) | 16 | 1.56 (≈ 2.6 µg/mL) | 0.5 | 0.5 | CN[C@H](CC(C)C)C(=O)N[C@H]1C(=O)N[C@@H](CC(N)=O)C(=O)N[C@H]2C(=O)N[C@H]3C(=O)N[C@H](C(=O)N[C@H](C(=O)NCC(=O)Nc4ccc(N5CCOCC5)cc4)c4cc(O)cc(O)c4-c4cc3ccc4O)[C@H](O)c3ccc(c(Cl)c3)Oc3cc2cc(c3O[C@@H]2O[C@H](CO)[C@@H](O)[C@H](O)[C@H]2O[C@H]2C[C@](C)(N)[C@H](O)[C@H](C)O2)Oc2ccc(cc2Cl)[C@H]1O [Vanc-8] | 107 ± 25 | > 250 | 202 | ≥ 250 | MIC (MRSA KS6): 1.56 µM (≈ 2.6 µg/mL); MIC-fold improvement vs. vancomycin (MRSA KS1): 1; MIC (MRSA KS1): 0.78 µM (≈ 1.3 µg/mL); MIC-fold improvement vs. vancomycin (MRSA KS89): 1; MIC (MRSA KS89): 0.78 µM (≈ 1.3 µg/mL); MIC-fold improvement vs. vancomycin (MRSA KS2): 1; MIC (MRSA KS2): 0.78 µM (≈ 1.3 µg/mL)

Source: article PMC6001238, “Iterative Chemical Engineering of Vancomycin Leads to Novel Vancomycin Analogs With a High in Vitro Therapeutic Index” (Frontiers in Microbiology, 2018)
